Source: patent US20260108547A1, “LEVERAGING L-FUCOSE-MEDIATED SIGNALING TO INDUCE MONOCYTE-DERIVED DENDRITIC CELL POLARIZATION” (H. LEE MOFFITT CANCER CENTER AND RESEARCH INSTITUTE, INC., priority 2022, published 2026)

How the values were obtained:
HLA-DRB1 [1] = assay: qRT-PCR and immunoblot of HLA-DRB1 mRNA and protein levels in melanoma cells; type: cell-based, human; conditions: 250 μM
Description: Cells were lysed on ice in RIPA lysis buffer (25 mM Tris-HCl pH 7.6, 150 mM NaCl, 5 mM EDTA, 1% NP-40 or 1% Triton X-100, 1% sodium deoxycholate, 0.1% SDS in diH2O+protease and phosphatase inhibitors (ThermoFisher Scientific (Waltham, MA)), briefly sonicated, pelleted, and the resulting lysates were normalized by protein concentration using DC assay (BioRad Laboratories, (Hercules, CA)). The indicated samples were subjected to (12%) SDS-PAGE and immunoblot analysis using the indicated antibodies. Immunoblot imaging and analysis was performed using either an Odyssey FC scanner and ImageStudio (LiCor Biosciences, Lincoln, NE) or film.
RNA from cells subjected to the indicated treatments was extracted using Gene Elute Mammalian Total RNA Extraction System (Millipore Sigma (St. Louis, MO)). RNA was reversed transcribed to cDNA using High-Capacity cDNA Reverse Transcription Kit (ThermoFisher Scientific (Waltham, MA)). qRT-PCR analysis was performed using FastStart Universal SYBR Green Master Mix (Rox) (Roche Diagnostics, (Indianapolis, IN)) using a BioRad CFX96 Real-time system (BioRad Laboratories, (Hercules, CA)). The qRT-PCR cycles used were as follows: 95° C. for 10 min, 35 cycles of 95° C. for 15 seconds, 55° C. for 60 seconds,
and 72° C. for 30 seconds. Expression of the indicated genes was normalized to histone H3A expression. […]

HLA-DRB1 [2] = assay: Immunofluorescent subcellular localization of HLA-DRB1 in WM793 cells; type: cell-based, human; conditions: compared with vehicle (DMSO)
Description: General fluorescent immunocytochemical staining protocol: Melanoma cells were grown on German glass coverslips (Electron Microscopy Services (Hatfield, PA)) and fixed in fixation buffer (4% formaldehyde, 2% sucrose in phosphate buffered saline (PBS) for 20 min at room temperature (RT). The coverslip-grown cells were subject to two 5-min standing washes in PBS prior to permeabilization in permeabilization buffer (0.4% Triton-X-100 and 0.4% IgG-free bovine serum albumin (BSA, Jackson ImmunoResearch Laboratories (Westgrove, PA) in PBS) for 20 min at RT. The coverslip-grown cells were next subject to 2 PBS washes and incubated with the indicated primary antibodies.

HLA-DRB1 [3] = assay: Flow cytometric assessment of cell surface fucosylation and HLA-DRB1 in melanoma cells; type: cell-based, human; conditions: 250 μM, 72 h; flow cytometry
Description: Indicated cells were treated for 72 h with DMSO, 250 μM fucosyltransferase inhibitor (FUTi) (Millipore Sigma (St. Louis, MO)), or 250 μM of L-fucose (Biosynth (Oak Terrace, IL)). After 72 h, cells were stained with 0.1 μM PKH26 (Millipore Sigma (St. Louis, MO)) prior to fixation in 4% formaldehyde solution. The cells were stained with anti-HLA-DRB1 and fluorescein AAL, or anti-human or anti-mouse PD-L1 overnight. The following day the cells were washed 3 times prior to adding AlexaFluor 594 donkey anti-rabbit. Cells were washed 3 times and then subject to flow cytometric analyses using a FACSCalibur (BD Biosciences (San Jose, CA)). Samples were analyzed using FlowJo analysis software (BD Biosciences (San Jose, CA)). Median values of DRB1 and AAL were normalized to PKH26 values and statistical analysis was performed using GraphPad Prism.

fucosylated HLA-DRB1 = assay: Lectin-mediated proximity ligation assay (L-PLA) of fucosylated HLA-DRB1 in WM793 cells; type: cell-based, human; conditions: melanoma cells
Description: Coverslip-grown cells subjected to L-PLA were processed upfront as described in the fluorescent immunocytochemistry protocol detailed above, whereas FFPE tumor tissue sections were processed according to the fluorescent immunohistochemistry protocol detailed above. Both approaches used mouse-anti-HLA-DRB1 (applied at 0.2 μg/mL, ab215835, Abcam, Cambridge, UK), biotinylated AAL lectin (applied at 0.2 μg/mL, Vector Laboratories (Burlingame, CA)), on coverslips overnight in 4° C. The coverslip-grown cells were again washed twice with PBS followed and then incubated with phalloidin Alexafluor 488 (applied at 0.05 μg/mL, ThermoFisher Scientific (Waltham, MA) with goat anti-biotin (applied at 0.1 μg/mL, Vector Laboratories (Burlingame, CA)) for 2h in 4° C. Subsequent steps of the protocol were adapted from the DUOlink In Situ Green PLA kit's manufacturer's protocol (Millipore Sigma (St. Louis, MO)). PLA anti-goat MINUS and PLA anti-mouse PLUS probes were applied at 1:5 for 1 h at 37° C. The coverslips were washed twice with Wash Buffer A prior to ligation with 1:5 ligation buffer and 1:40 ligase in ddH2O for 30 min at 37° C. […] Microscopy images were acquired using a Keyence BZ-X710, and images were process and analyzed using FIJI (NIH).

SW1 tumors [4] = assay: Flow cytometric profiling of tumors and lymph nodes, SW1 tumors in C3H/HeN mice fed ± L-fucose and treated ± FTY720 (Table 1); type: in vivo, mouse
Description: Tumors of SW1 or SM1 melanoma cells from […] or C57BL/6 mice, respectively) were digested using 1× tumor digest buffer (0.5 mg/mL Collagenase I, 0.5 mg/mL Collagenase IV, 0.25 mg/mL Hyalyronidase V, 0.1 mg/mL DNAse I in HBSS (Millipore Sigma (St. Louis, MO)). Tumors were homogenized using the Miltenyi MACs dissociator. Red blood cells were lysed using ACK lysis buffer (Life Technologies, (Grand Island, NY)). Tumor homogenate cells were counted using a standard hemocytometer.
Total TILs were gated first to single cells (based on forward scatter height vs width, followed by side scatter height vs. width). Live cells were gated from the Zombie negative population from the population above. TILs were gated based on splenocyte size from a control spleen. Individual immune subpopulations were sub-gated from the total TIL population using the following staining criteria: CD3^+ for CD3^+ T cells; CD3^+/CD4^+/CD8^− for CD4^+T cells; CD3^+/CD4^−/CD8^+ for CD8^+ T cells, CD11c^+/CD11b^+ for DCs; either NK1.1 (for C57/BL6 mice) or DX5 (for C3H/HeJ) for NK cells; CD11b^+/GR1^+ for MDSC-like cells; and F4/80^+ for macrophages. Single-cell suspensions from tumor and spleen tissue were stained with Live/Dead Zombie NIR (Biolegend, (San Diego, CA)) at 1:1,000 in PBS for 20 min. Cell suspensions were spun down and stained with the following with antibodies at 0.5 μg/ml per antibody: APC anti-mouse CD3, Pacific Blue anti-mouse CD4, BV785 anti-mouse CD8, PerCP anti-mouse CD25, FITC anti-mouse F4/80, PeCy7 anti-mouse CD11c, PE anti-mouse NK1.1 or PE anti-mouse DX5, and PerCP-Cy5.5 anti-mouse CD11b. After staining, the cells were washed and fixed (2% formaldehyde), followed by another wash and flow cytometric analysis. The compensation controls were prepared using 0.5 μg/mL of each antibody with UltraComp eBeads, (ThermoFisher Scientific (Waltham, MA)). All samples were subject to flow cytometric profiling using a LSR Flow Cytometer (BD Biosciences (San Jose, CA)) and analysis as indicated using FlowJo software (BD Biosciences (San Jose, CA)).
(§1) For all mouse models, 1×10^6 melanoma cells were injected subcutaneously in the right hind flanks of each mouse. […] This dosage is within ranges for dietary supplementation with L-fucose and other similar dietary sugars (e.g., D-mannose) in other rodent studies. When the tumors reached −2 cm^3, the animals were sacrificed, and the tumors either processed for flow cytometric profiling or for histological analysis as indicated.
(§2) Control vs. L-fucose±FTY720 models (FIG. 2): SW1 or SM1 mouse melanoma cells were injected into syngeneic C3H/HeN (or NSG) female or C57BL/6 male mice, respectively. Cells were injected as follows: parental SW1 cells for FIG. 1A; parental SM1 cells for FIG. 1E; SW1 cells stably expressing either empty vector (EV) or mouse fucose kinase (mFuk) for FIG. 1L; and parental SW1 cells for FIG. 1M. FTY720 was administered at 20 μg every 2 days starting on Day 12, just prior to the initiation of LF, until endpoint.

SW1 tumors [5] = assay: Volumetric tumor growth, SW1 melanoma in C3H/HeN mice (incl. immunodepletion, FTY720, anti-PD1); type: in vivo, mouse; conditions: SW1 melanoma C3H mouse model treated with FTY720 (inhibition of lymph node egress)
Excerpt: All animals were housed at the Vincent A. Stabile Research building animal facility at H. Lee Moffitt Cancer Center & Research Institute, which is fully accredited by the Association for Assessment and Accreditation of Laboratory Animal Care International (AAALAC, #434), and are managed in accordance with the Guide for the Care and Use of Laboratory Animals (“The Guide”), the Animal Welfare Regulations Title 9 Code of Federal Regulations Subchapter A, “Animal Welfare”, Parts 1-3 (AWR), the Public Health Service Policy on Humane Care and Use of Laboratory Animals (PHS Policy), and by the USF Institutional Animal Care and Use Committee's Principles and Procedures of Animal Care and Use (IACUC Principles). The experiments and protocols detailed in this study received institutional approval by the Moffitt IACUC (RIS00001625). Four-to-six-week-old female C3H/HeN and male C57BL6 mice were purchased from Charles Rivers Laboratories for the indicated experiments. Four-to-six-week-old male NSG mice from the Lau laboratory breeding colony were used for the indicated experiments. Power calculations were used to determine mouse cohort sizes to detect significant changes in tumor sizes. In general, 10 mice per indicated cohort to accommodate for incidental loss of mice due to issues beyond our control (e.g., incidental tumor ulceration that required exclusion from the study). Mouse tumor volumes were measured using length, width and depth divided by 2. At each experimental endpoint, mice were humanely euthanized using CO2 inhalation in accordance to the American Veterinary Medical Association guidelines.
as §1
Control vs. mFuk±L-fucose models (FIG. 1 & FIG. 8): SW1 or SM1 mouse melanoma cells were injected into syngeneic C3H/HeN (or NSG) female or C57BL/6 male mice, respectively, as follows: parental SW1 cells for FIG. 1A; parental SM1 cells for FIG. 1E; SW1 cells stably expressing either empty vector (EV) or mouse fucose kinase (mFuk) for FIG. 1L; and parental SW1 cells for FIG. 1M.
as §2
Immunodepletion mouse models (FIG. 1 & FIG. 8): Three days prior to tumor engraftment, PBS (control) or ˜300 μg α-CD4 (20 mg/kg, for immunodepletion, GK1.5, Bioxcell (West Lebanon, NH)) or 0-CD8 (20 mg/kg, for immunodepletion, 2.43, Bioxcell (West Lebanon, NH)) was administered by intraperitoneal injection into the indicated cohorts of mice. Injections of immunodepletion antibody or PBS were continued every 3-4 days until endpoint. Syngeneic recipient C3H/HeN female or C57BL/6 male mice were injected with SW1 or SM1 cells, respectively. […]

SMILES | HLA-DRB1 mRNA and protein levels (HLA-DRB1 [1]) | subcellular localization of HLA-DRB1 (HLA-DRB1 [2]) | cell surface HLA-DRB1 (HLA-DRB1 [3]) | cell surface fucosylation (HLA-DRB1 [3]) | cytoplasmic/membranous localization of endogenous fucosylated HLA-DRB1 (L-PLA) (fucosylated HLA-DRB1) | average # of CD4 stem central memory cells (SW1 tumors [4]; Day 28, tumors) | average # of CD8 stem central memory cells (SW1 tumors [4]; Day 28, tumors) | average # of CD8 effector memory cells (SW1 tumors [4]; Day 42, tumors) | average # of CD8 stem central memory cells (SW1 tumors [4]; Day 42, tumors) | intratumoral CD4+T central and effector memory subpopulations (SW1 tumors [4]; SW1 model ± FTY720) | L-fuc-triggered tumor suppression (SW1 tumors [5])
CC(=O)OC1O[C@@H](C)[C@@H](OC(C)=O)[C@@H](OC(C)=O)[C@@H]1F (some centres unmarked) [FUTi, 2F-peracteyl-fucose, reference compound] | remained unchanged | dimmer, more central, endoplasmic reticulum-co-localization of HLA-DRB1 | decreased | decreased | lost | – | – | – | – | – | –
CCCCCCCCc1ccc(CCC(N)(CO)CO)cc1 [FTY720, reference compound] | – | – | – | – | – | 0.87 per 10^6 cells | 0.00 per 10^6 cells | 220.02 per 10^6 cells | 0.00 per 10^6 cells | abrogated | completely abrogated
